The values that follow come from US9439927B2, “Treatment of inflammatory bowel disease” (Glock Health GmbH, priority 2013, dated 2016).

Each structure is given as a SMILES string.

For one experiment, the system named is intestinal epithelium. Nature of the experiment: Histological analysis (hematoxylin and eosin staining) and colon damage score. The experiment is classed as in vivo, mice. How it is done:
(§1) For five groups of 12 mice each (only 3 mice in the control), the experimental routine procedure frequently used in connection with the treatment of IBD was carried out, in which IBD is induced by administration of dextran sulfate sodium (DSS). This involved administering DSS in drinking water for five days (but not in the control group), and after that the particular test substance was administered orally. On the tenth day, the mice were sacrificed using CO2 and the colon was removed for examination.

The subject of experiment [1] is IBD induced by administration of dextran sulfate sodium (DSS). Briefly: Stool consistency (stool score), DSS-induced IBD in mice. It counts as in vivo. The following applies: tenth day, FIG. 2. The procedure: as §1
For experiment [2] the test system is unchanged. Briefly: Blood in stool, DSS-induced IBD in mice. It counts as in vivo. Details: key to Blood in stool: + Blood in stool; − No blood in stool. Conditions: for Blood in stool: DSS in drinking water for five days, test substance orally from the sixth day. The procedure:
(§2) For five groups of 12 mice each (only 3 mice in the control), the experimental routine procedure frequently used in connection with the treatment of IBD was carried out, in which IBD is induced by administration of dextran sulfate sodium (DSS). This involved administering DSS in drinking water for five days (but not in the control group), and after that the particular test substance was administered orally. On the tenth day, the mice were sacrificed using CO2 and the colon was removed for examination. The individual groups were as follows:
Group 2: received only DSS.
Group 3: (GHC1) received DSS as described above and, from the sixth day, a clinoptilolite freed of heavy metals which was ground to a mean particle size of 3.5 μm and thus not in accordance with the invention.
Group 4: (GHC2) received, from the sixth day, the substance according to the invention.
Group 5: (5ASA) received, from the sixth day, sulfasalazine, a derivative of mesalazine, also termed 5-ASA.

A further experiment deals with TNF-α. Briefly: TNF-α mRNA by RT-PCR in intestinal tissue homogenates. It counts as in vivo, mice. Conditions: FIG. 10. The procedure:
as §2
To objectify and quantify the effects determined from the histological examinations, further analyses of biochemical inflammation markers (TNF-α/IL-6/IL-1β mRNA by means of RT-PCR, MPO activity) from tissue homogenates of the relevant intestinal segments were carried out.
Two further proinflammatory cytokines were examined; the results are shown in FIG. 9 (IL-6) and 10 (TNF-α). Said figures show: • 2expΔΔct=the rise in expression for a particular gene (1=1×, 2=2×, etc.); • Control=control group; • DSS1.5=group 2; • DSS1.5+GHC1=group 3; • DSS1.5+GHC2=(inventive) group 4; • DSS1.5+5ASA=group 5; • **=a very significant difference in relation to the control group (control); • #=a significant difference in relation to the DDS1.5 group (group 2); • ##=a very significant difference in relation to the DDS1.5 group (group 2).

`O=C(O)c1cc(/N=N/c2ccc(S(=O)(=O)Nc3ccccn3)cc2)ccc1O` [5ASA, sulfasalazine]: the “Healing of the intestinal epithelium (histology)” value in the experiment with intestinal epithelium (hematoxylin and eosin staining, day 10, FIG. 5) is on record as “distinctly improved healing of the intestinal epithelium”. Also, the Colon damage score result in the experiment on intestinal epithelium (histo(patho)logical examinations, FIG. 6) is “good convergence”. Besides, the “Stool consistency, return to normal range” value in experiment [1] is on record as “completely within the normal range”. Also, the Blood in stool entry in experiment [2] (day 0) is on record as “−”; in experiment [2] (day 2), “−”; in experiment [2] (day 4), “−”; in experiment [2] (day 6), “+”; in experiment [2] (day 8), “−”; in experiment [2] (day 10) it was “−”. Further, in experiment [2] (text summary of Table I), the “Days on which blood in stool was exhibited” value was “only on the sixth day”. In the experiment with TNF-α, the “TNF-α expression (2expΔΔct)” value is reported as “does not show a positive effect”.
